Data reported in the CheMixHub ionic liquid set.

Experiment: xn = mol fraction of the nth substance listed

FC(F)(F)c1ccccc1 + CCCC[N+]1(C)CCCC1.FC(F)(F)C(F)(F)[P-](F)(F)(F)(C(F)(F)C(F)(F)F)C(F)(F)C(F)(F)F
101 kPa
Settings | electrical conductivity [S/m] | viscosity [mPa·s]
298.1 K, x2 = 0 | – | 0.53
298.1 K, x2 = 0.059 | 0.368 | –
298.1 K, x2 = 0.099 | 0.536 | –
298.1 K, x2 = 0.144 | 0.663 | –
298.1 K, x2 = 0.198 | – | 3.67
298.1 K, x2 = 0.203 | 0.762 | –
298.1 K, x2 = 0.27 | – | 5.93
298.1 K, x2 = 0.274 | 0.696 | –
298.1 K, x2 = 0.371 | 0.619 | –
298.1 K, x2 = 0.495 | – | 21.7
298.1 K, x2 = 0.5 | 0.461 | –
298.1 K, x2 = 0.69 | 0.311 | 55.1
298.1 K, x2 = 0.858 | 0.172 | 111.8
303 K, x2 = 0.063 | 0.394 | –
303 K, x2 = 0.099 | 0.576 | –
303 K, x2 = 0.144 | 0.711 | –
303 K, x2 = 0.2 | 0.82 | –
303 K, x2 = 0.274 | 0.772 | –
303 K, x2 = 0.366 | – | 8.56
303 K, x2 = 0.374 | 0.681 | –
303 K, x2 = 0.497 | 0.553 | –
303 K, x2 = 0.498 | – | 17.83
303 K, x2 = 0.694 | 0.369 | –
303 K, x2 = 0.852 | – | 84.4
303 K, x2 = 0.858 | 0.212 | –
308.1 K, x2 = 0.063 | 0.415 | –
308.1 K, x2 = 0.102 | 0.612 | –
308.1 K, x2 = 0.141 | 0.766 | –
308.1 K, x2 = 0.201 | – | 2.93
308.1 K, x2 = 0.206 | 0.886 | –
308.1 K, x2 = 0.281 | 0.842 | –
308.1 K, x2 = 0.366 | – | 7.87
308.1 K, x2 = 0.378 | 0.761 | –
308.1 K, x2 = 0.5 | 0.611 | –
308.1 K, x2 = 0.69 | – | 39.4
308.1 K, x2 = 0.694 | 0.435 | –
308.1 K, x2 = 0.858 | 0.259 | –
313 K, x2 = 0.063 | 0.434 | –
313 K, x2 = 0.099 | 0.645 | –
313 K, x2 = 0.141 | – | 1.77
313 K, x2 = 0.142 | 0.817 | –
313 K, x2 = 0.203 | 0.951 | –
313 K, x2 = 0.278 | 0.911 | –
313 K, x2 = 0.371 | 0.834 | –
313 K, x2 = 0.498 | – | 12.73
313 K, x2 = 0.5 | 0.688 | –
313 K, x2 = 0.687 | – | 32.3
313 K, x2 = 0.697 | 0.504 | –
313 K, x2 = 0.859 | 0.31 | –
318.1 K, x2 = 0.063 | 0.456 | –
318.1 K, x2 = 0.099 | 0.678 | –
318.1 K, x2 = 0.142 | 0.86 | –
318.1 K, x2 = 0.2 | 1.02 | –
318.1 K, x2 = 0.275 | 0.988 | –
318.1 K, x2 = 0.369 | – | 6.11
318.1 K, x2 = 0.372 | 0.914 | –
318.1 K, x2 = 0.504 | 0.757 | –
318.1 K, x2 = 0.687 | – | 26.6
318.1 K, x2 = 0.694 | 0.577 | –
318.1 K, x2 = 0.855 | 0.361 | –
323 K, x2 = 0 | – | 0.46
323 K, x2 = 0.026 | 0.204 | –
323 K, x2 = 0.095 | – | 1.09
323 K, x2 = 0.099 | 0.715 | –
323 K, x2 = 0.142 | 0.908 | –
323 K, x2 = 0.201 | 1.08 | –
323 K, x2 = 0.278 | 1.07 | –
323 K, x2 = 0.372 | 0.991 | –
323 K, x2 = 0.498 | – | 9.89
323 K, x2 = 0.501 | 0.834 | –
323 K, x2 = 0.694 | 0.658 | –
323 K, x2 = 0.856 | – | 37.4
323 K, x2 = 0.862 | 0.416 | –

CCOC(=O)OCC + CCCC[N+]1(C)CCCC1.O=S(=O)([N-]S(=O)(=O)C(F)(F)F)C(F)(F)F
Settings | viscosity [mPa·s]
323.15 K, 100 kPa, x2 = 0 | 0.54

CC#N + CCCC[N+]1(C)CCCC1.O=S(=O)([O-])C(F)(F)F
101 kPa, x1 = 1
Settings | viscosity [mPa·s]
288.15 K | 0.371
293.15 K | 0.355
298.15 K | 0.337

CN(C)C=O + CCCC[P+](C)(CCCC)CCCC.COS(=O)(=O)[O-]
100 kPa, x2 = 0
Settings | viscosity [mPa·s]
308.15 K | 0.717
323.15 K | 0.63

CC#N + CCCC[P+](CC)(CCCC)CCCC.F[B-](F)(F)F
100 kPa, x2 = 0
Settings | viscosity [mPa·s]
293.15 K | 0.354
298.15 K | 0.338
303.15 K | 0.324
308.15 K | 0.31
313.15 K | 0.298
318.15 K | 0.286

CC#N + CCCC[P+](CCCC)(CCCC)CCCC.F[B-](F)(F)F
100 kPa, x2 = 0
Settings | viscosity [mPa·s]
293.15 K | 0.354
298.15 K | 0.338
303.15 K | 0.324
308.15 K | 0.31
313.15 K | 0.298
318.15 K | 0.286

CCCCCC(=O)O + CCCC[P+](CCCC)(CCCC)CCCC.[Br-]
Settings | viscosity [mPa·s]
298 K, 100 kPa, x2 = 0.5 | 290

CCCC[N+]1(C)CCCC1.F[P-](F)(F)(F)(F)F + CCCC[n+]1cccc(C)c1.F[P-](F)(F)(F)(F)F
101.3 kPa
Settings | viscosity [mPa·s]
308.15 K, x2 = 0.4 | 535
313.15 K, x2 = 0.4 | 390
318.15 K, x2 = 0.4 | 290
318.15 K, x2 = 0.5 | 262
328.15 K, x2 = 0.4 | 170
328.15 K, x2 = 0.7 | 123
328.15 K, x2 = 0.9 | 102
333.15 K, x2 = 0.6 | 108
338.15 K, x2 = 0.5 | 96
343.15 K, x2 = 0.2 | 110
343.15 K, x2 = 0.4 | 86
343.15 K, x2 = 0.6 | 70
348.15 K, x2 = 0.6 | 57
353.15 K, x2 = 0.4 | 58
358.15 K, x2 = 0.2 | 61
358.15 K, x2 = 0.4 | 48
363.15 K, x2 = 0.5 | 37
363.15 K, x2 = 0.6 | 34

CCCC[n+]1ccccc1.O=S(=O)([N-]S(=O)(=O)C(F)(F)F)C(F)(F)F + CCCC[n+]1ccccc1.F[B-](F)(F)F
101 kPa
Settings | viscosity [mPa·s]
303.15 K, x1 = 0.2162 | 91.2
303.15 K, x1 = 0.7643 | 58.2
313.15 K, x1 = 0.4327 | 48.4
313.15 K, x1 = 0.5429 | 46.2
313.15 K, x1 = 0.6523 | 42.5
313.15 K, x1 = 0.8822 | 36.3
323.15 K, x1 = 1 | 24.2
333.15 K, x1 = 0.6523 | 21.8
343.15 K, x1 = 0.1119 | 21.9
343.15 K, x1 = 0.2162 | 19.9
343.15 K, x1 = 0.8822 | 14.5
353.15 K, x1 = 0.1119 | 16.5
353.15 K, x1 = 0.4327 | 13.7
353.15 K, x1 = 0.5429 | 13.2
353.15 K, x1 = 1 | 10.9

CCCC[n+]1ccccc1.[Cl-] + CCCC[n+]1ccccc1.[Br-]
101 kPa
Settings | viscosity [mPa·s]
398.1 K, x1 = 0.084 | 33
403.1 K, x1 = 0.084 | 27.4
408.1 K, x1 = 0.389 | 23.9
418.1 K, x1 = 0.169 | 16.9
418.1 K, x1 = 0.389 | 17.4
418.1 K, x1 = 0.689 | 18.6
418.1 K, x1 = 0.892 | 19.4
423.1 K, x1 = 0.084 | 14.37
423.1 K, x1 = 0.892 | 16.89
428.1 K, x1 = 0.785 | 14.42
433.1 K, x1 = 0.292 | 11.45
433.1 K, x1 = 0.892 | 13.16
438.1 K, x1 = 0.169 | 10.08
438.1 K, x1 = 0.469 | 10.85
438.1 K, x1 = 0.892 | 11.77

CC#N + CCCC[n+]1ccn(C)c1.F[B-](F)(F)F
Settings | electrical conductivity, 298.15 K [S/m] | viscosity, 298.15 K [mPa·s] | viscosity, 333.15 K [mPa·s]
100 kPa, x2 = 0 | 0.0002 | 0.37 | –
101 kPa, x1 = 1 | – | – | 0.257

CC(=O)c1ccccc1 + CCCC[n+]1ccn(C)c1.F[B-](F)(F)F
viscosity [mPa·s], 100 kPa
Settings | 293.15 K | 303.15 K | 313.15 K | 323.15 K | 333.15 K
x1 = 0.0513 | 79 | 50 | 30.5 | 20.4 | 12.9
x1 = 0.1001 | 56 | 38.6 | 21.6 | 15.4 | 11.5
x1 = 0.2046 | 43.6 | 30.8 | 19 | 13.7 | 10.3
x1 = 0.306 | 42.4 | 28.6 | 16.9 | 12.2 | 9.2
x1 = 0.3976 | 41.7 | 25.9 | 11.8 | 9.7 | 6.7
x1 = 0.5064 | 34.4 | 21.3 | 10.8 | 7.6 | 6.2
x1 = 0.6079 | 29.5 | 16.9 | 9.8 | 6.5 | 5.7
x1 = 0.7065 | 26 | 13.7 | 8.3 | 5.4 | –
x1 = 0.8054 | 22.3 | 11.7 | 7.1 | 4.79 | –
x1 = 0.9026 | 11.8 | 8 | 5.7 | 3.81 | 3.23
x1 = 0.9516 | 7 | 5 | 3.65 | 2.8 | 2.22
x1 = 1 | 1.91 | 1.65 | 1.37 | 1.17 | 1.02

CCCC[n+]1ccn(C)c1.F[P-](F)(F)(F)(F)F + CCCC[n+]1ccn(C)c1.F[B-](F)(F)F
101 kPa
Settings | viscosity [mPa·s]
298.15 K, x1 = 0.1034 | 116.1
298.15 K, x1 = 0.833 | 227
298.15 K, x1 = 0.8877 | 237
299.15 K, x1 = 0.1034 | 110.2
299.15 K, x1 = 0.2095 | 121.3
299.15 K, x1 = 1 | 259
301.15 K, x1 = 0.0568 | 91.6
301.15 K, x1 = 0.1034 | 99.5
301.15 K, x1 = 1 | 232
302.15 K, x1 = 0.0568 | 87.1
302.15 K, x1 = 0.3825 | 118.8
302.15 K, x1 = 0.4647 | 124.4
303.15 K, x1 = 0.0568 | 82.9
305.15 K, x1 = 0.6928 | 136.5
305.15 K, x1 = 0.945 | 166.1
307.15 K, x1 = 0.3825 | 92.5
307.15 K, x1 = 0.833 | 136.1
307.15 K, x1 = 0.945 | 149.7
308.15 K, x1 = 0.2095 | 77.4
308.15 K, x1 = 0.3825 | 88.1
308.15 K, x1 = 0.5385 | 98.8
308.15 K, x1 = 1 | 156

CN(C)C=O + CCCC[n+]1ccn(C)c1.F[B-](F)(F)F
Settings | viscosity [mPa·s]
298.15 K, 101.33 kPa, x1 = 1 | 0.8
333.15 K, 100 kPa, x2 = 0 | 0.559

CN1CCCC1=O + CCCC[n+]1ccn(C)c1.F[B-](F)(F)F
101 kPa, x1 = 1
Settings | viscosity [mPa·s]
298.15 K | 1.66
303.15 K | 1.49
308.15 K | 1.39
313.15 K | 1.31
323.15 K | 1.174
